Measured values taken from ChEMBL document CHEMBL5465560, “Selectivity Literature for EUbOPEN Chemogenomic Library” (2024).

Columns and labels:
[1] = biological target: T1, Ephrin type-B receptor 1 (Homo sapiens) (UniProt P54762); test: Selectivity interaction (KinomeScan (DiscoverX)) EUB0001049a EPHB1; conditions: at 1 µM
T1 sequence (whole entry): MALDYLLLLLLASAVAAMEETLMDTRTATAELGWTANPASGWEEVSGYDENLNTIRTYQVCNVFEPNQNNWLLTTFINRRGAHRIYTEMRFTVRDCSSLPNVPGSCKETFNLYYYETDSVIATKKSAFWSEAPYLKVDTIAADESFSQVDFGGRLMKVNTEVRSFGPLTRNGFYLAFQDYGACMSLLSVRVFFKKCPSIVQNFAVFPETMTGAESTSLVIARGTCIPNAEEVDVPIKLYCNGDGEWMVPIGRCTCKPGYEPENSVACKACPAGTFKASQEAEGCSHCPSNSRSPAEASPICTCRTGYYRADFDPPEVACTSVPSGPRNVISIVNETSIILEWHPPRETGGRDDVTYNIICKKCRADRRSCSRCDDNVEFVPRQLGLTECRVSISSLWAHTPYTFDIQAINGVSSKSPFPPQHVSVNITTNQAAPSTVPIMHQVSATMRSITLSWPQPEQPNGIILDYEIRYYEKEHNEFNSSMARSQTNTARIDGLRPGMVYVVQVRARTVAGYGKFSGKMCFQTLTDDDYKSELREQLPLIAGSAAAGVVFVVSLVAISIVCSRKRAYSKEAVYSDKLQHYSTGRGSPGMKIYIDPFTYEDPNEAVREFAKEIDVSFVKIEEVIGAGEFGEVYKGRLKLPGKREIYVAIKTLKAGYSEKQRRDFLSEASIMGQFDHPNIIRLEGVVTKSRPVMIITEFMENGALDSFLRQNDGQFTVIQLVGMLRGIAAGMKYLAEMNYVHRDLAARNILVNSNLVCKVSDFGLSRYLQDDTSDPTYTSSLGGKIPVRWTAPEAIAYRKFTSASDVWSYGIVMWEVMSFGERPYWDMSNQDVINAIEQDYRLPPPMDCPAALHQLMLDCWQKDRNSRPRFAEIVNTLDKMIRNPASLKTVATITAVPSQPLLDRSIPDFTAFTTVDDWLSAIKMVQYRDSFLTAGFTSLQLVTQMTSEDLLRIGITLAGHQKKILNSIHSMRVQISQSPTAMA

[2] = biological target: Tyrosine-protein kinase receptor Tie-1 (Homo sapiens) (UniProt P35590); test: Selectivity interaction (KinomeScan (DiscoverX)) EUB0001049a TIE1; conditions: at 1 µM
Sequence of Tyrosine-protein kinase receptor Tie-1 (Homo sapiens) (P35590 whole entry): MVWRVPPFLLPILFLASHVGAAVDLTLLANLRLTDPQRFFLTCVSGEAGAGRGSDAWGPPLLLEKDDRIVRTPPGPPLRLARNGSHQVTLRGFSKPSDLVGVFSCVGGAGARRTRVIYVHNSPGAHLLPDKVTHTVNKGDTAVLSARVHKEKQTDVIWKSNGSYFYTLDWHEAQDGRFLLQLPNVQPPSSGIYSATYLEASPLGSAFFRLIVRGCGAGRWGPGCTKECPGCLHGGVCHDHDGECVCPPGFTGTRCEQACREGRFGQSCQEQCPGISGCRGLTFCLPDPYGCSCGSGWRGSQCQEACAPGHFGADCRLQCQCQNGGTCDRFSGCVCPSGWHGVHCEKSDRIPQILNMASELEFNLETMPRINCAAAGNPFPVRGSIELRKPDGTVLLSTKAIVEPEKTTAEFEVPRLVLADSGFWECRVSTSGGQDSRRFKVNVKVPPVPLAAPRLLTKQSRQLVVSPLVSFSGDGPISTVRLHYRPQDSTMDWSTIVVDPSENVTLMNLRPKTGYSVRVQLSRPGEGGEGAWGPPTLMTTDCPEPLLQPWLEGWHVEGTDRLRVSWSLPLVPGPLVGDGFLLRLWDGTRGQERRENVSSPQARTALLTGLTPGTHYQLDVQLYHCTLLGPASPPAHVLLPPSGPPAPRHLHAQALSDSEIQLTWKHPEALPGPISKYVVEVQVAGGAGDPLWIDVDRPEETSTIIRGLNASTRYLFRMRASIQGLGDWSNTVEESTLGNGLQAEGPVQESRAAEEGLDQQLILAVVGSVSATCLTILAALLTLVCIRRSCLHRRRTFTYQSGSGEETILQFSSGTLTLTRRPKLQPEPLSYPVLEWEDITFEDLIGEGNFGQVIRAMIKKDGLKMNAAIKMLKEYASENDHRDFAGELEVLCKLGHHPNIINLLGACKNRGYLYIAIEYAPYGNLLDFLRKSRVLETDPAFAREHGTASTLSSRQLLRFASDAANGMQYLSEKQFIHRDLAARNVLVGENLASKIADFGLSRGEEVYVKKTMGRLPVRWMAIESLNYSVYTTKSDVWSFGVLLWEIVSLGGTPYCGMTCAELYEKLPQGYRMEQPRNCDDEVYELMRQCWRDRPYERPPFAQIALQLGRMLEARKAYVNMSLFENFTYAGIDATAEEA

[3] = biological target: Beta-3 adrenergic receptor (Homo sapiens) (UniProt P13945); test: Selectivity interaction (GPCR panel (PDSP screen)) EUB0001079a ADRB3; conditions: at 10 µM
Sequence of Beta-3 adrenergic receptor (Homo sapiens) (P13945 whole entry, looked up): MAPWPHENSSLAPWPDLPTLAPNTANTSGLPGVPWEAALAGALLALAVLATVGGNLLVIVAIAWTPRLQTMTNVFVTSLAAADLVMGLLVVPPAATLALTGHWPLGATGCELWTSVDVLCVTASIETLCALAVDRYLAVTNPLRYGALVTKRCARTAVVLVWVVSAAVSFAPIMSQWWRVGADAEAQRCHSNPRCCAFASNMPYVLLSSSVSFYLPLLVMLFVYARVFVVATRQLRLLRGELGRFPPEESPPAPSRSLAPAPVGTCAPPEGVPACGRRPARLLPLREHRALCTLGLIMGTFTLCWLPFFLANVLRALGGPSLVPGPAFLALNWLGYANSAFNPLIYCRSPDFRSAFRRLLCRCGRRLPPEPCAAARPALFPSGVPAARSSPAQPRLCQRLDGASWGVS

[4] = biological target: T2, 5-hydroxytryptamine receptor 1A (Homo sapiens) (UniProt P08908); test: Selectivity interaction (GPCR panel (PDSP screen)) EUB0001079a HTR1A; conditions: at 10 µM
T2 sequence (whole entry): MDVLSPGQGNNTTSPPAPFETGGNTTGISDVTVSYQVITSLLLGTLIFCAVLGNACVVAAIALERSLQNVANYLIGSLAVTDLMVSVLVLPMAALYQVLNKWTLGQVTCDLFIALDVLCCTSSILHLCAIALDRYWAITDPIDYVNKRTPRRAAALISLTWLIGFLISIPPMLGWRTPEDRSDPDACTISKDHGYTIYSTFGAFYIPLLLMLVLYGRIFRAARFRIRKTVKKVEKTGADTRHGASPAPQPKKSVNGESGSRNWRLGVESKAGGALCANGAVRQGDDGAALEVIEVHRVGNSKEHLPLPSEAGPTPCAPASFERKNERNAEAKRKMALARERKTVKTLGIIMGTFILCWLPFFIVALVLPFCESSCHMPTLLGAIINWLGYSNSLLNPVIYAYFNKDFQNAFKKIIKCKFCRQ

[5] = biological target: Serine/threonine-protein kinase mTOR (Homo sapiens, UniProt P42345); conditions: at 10 µM
[6] = biological target: Vascular endothelial growth factor receptor 1 (Homo sapiens) (UniProt P17948); test: Selectivity interaction (KinomeScan (DiscoverX)) EUB0000618a FLT1; conditions: at 10 µM
Sequence of Vascular endothelial growth factor receptor 1 (Homo sapiens) (P17948 whole entry): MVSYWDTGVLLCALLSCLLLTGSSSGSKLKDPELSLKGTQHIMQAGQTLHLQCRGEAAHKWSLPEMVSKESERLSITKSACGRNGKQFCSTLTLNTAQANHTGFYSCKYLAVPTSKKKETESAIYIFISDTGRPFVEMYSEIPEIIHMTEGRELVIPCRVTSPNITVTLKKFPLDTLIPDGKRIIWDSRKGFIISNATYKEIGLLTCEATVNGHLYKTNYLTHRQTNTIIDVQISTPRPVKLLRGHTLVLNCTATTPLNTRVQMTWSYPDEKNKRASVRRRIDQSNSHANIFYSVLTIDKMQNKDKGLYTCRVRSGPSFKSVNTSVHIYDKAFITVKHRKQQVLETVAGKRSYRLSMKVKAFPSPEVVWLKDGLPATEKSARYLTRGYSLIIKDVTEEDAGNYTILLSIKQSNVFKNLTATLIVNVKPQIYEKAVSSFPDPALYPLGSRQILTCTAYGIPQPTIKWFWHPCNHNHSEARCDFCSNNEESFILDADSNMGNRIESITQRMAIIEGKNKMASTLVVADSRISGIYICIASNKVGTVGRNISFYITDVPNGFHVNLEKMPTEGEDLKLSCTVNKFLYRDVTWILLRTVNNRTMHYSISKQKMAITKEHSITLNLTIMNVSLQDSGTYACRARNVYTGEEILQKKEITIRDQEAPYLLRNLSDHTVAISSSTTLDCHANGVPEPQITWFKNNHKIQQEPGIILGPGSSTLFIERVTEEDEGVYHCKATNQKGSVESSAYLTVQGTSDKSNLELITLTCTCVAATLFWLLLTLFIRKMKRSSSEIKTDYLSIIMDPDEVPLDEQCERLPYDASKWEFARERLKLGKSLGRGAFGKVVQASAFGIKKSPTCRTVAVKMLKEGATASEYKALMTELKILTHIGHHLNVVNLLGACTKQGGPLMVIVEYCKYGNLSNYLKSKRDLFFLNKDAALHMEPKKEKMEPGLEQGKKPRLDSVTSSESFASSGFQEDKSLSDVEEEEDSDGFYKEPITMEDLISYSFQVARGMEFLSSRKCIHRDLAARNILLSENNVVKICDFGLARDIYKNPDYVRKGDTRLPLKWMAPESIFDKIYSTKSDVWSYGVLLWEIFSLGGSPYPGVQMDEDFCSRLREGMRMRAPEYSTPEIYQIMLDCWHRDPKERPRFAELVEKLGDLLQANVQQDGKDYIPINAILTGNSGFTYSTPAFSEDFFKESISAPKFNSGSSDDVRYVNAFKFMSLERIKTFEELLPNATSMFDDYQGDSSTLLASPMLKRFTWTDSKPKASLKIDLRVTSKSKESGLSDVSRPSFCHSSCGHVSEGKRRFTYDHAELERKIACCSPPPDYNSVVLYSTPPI

[7] = biological target: T3, Serine/threonine-protein kinase LATS2 (Homo sapiens) (UniProt Q9NRM7); conditions: at 10 µM
T3 sequence (whole entry): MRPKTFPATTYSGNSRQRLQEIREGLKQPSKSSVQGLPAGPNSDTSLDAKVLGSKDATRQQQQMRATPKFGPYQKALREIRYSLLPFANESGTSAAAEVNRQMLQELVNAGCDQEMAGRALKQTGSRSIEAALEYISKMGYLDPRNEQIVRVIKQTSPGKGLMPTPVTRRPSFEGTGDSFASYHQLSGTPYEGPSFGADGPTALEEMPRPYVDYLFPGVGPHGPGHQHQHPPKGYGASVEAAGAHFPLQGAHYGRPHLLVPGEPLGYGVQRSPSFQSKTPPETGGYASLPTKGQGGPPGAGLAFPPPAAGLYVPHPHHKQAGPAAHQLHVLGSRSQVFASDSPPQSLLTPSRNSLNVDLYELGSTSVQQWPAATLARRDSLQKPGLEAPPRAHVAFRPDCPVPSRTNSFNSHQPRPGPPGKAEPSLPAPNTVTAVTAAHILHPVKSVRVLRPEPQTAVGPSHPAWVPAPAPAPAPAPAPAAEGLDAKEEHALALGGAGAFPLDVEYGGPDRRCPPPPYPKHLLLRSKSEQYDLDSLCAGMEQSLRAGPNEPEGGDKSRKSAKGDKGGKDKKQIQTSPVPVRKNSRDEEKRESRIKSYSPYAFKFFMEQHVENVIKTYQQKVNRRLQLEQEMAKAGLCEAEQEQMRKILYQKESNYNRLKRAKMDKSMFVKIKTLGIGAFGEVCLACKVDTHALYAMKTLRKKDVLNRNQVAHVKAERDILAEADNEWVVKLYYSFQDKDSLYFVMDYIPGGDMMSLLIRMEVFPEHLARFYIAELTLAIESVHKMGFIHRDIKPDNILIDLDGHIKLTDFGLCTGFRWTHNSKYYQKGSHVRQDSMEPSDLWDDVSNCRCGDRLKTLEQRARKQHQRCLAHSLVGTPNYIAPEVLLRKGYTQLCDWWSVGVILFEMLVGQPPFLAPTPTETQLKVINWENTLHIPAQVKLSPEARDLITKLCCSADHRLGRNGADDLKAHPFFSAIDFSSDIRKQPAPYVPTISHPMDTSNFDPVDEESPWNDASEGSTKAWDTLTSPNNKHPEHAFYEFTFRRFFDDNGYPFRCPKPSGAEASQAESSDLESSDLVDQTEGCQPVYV

Insulin receptor = Insulin receptor (Homo sapiens, UniProt P06213); test: Selectivity interaction (KinomeScan (DiscoverX)) EUB0000607a INSR; conditions: at 10 µM
Sequence of Insulin receptor (P06213 28-758 limits assumed): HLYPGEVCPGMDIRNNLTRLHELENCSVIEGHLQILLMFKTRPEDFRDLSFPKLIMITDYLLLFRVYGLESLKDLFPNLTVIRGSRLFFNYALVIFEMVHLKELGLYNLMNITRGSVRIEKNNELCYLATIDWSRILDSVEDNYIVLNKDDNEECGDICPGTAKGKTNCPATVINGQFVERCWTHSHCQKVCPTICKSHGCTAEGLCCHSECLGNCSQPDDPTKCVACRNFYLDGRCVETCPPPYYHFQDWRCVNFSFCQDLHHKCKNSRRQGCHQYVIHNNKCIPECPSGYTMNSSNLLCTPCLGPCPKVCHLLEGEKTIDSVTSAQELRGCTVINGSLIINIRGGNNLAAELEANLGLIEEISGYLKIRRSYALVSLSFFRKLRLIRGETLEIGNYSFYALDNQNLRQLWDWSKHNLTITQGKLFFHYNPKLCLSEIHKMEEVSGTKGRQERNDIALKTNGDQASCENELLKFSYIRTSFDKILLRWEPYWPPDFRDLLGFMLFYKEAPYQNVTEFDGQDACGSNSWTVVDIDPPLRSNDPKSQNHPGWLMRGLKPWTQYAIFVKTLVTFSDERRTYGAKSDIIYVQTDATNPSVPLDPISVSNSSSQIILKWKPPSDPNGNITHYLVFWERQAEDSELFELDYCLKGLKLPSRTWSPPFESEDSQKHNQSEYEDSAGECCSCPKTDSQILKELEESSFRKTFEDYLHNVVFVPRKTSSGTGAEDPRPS
Sequence of Insulin receptor (P06213 763-1382 limits assumed): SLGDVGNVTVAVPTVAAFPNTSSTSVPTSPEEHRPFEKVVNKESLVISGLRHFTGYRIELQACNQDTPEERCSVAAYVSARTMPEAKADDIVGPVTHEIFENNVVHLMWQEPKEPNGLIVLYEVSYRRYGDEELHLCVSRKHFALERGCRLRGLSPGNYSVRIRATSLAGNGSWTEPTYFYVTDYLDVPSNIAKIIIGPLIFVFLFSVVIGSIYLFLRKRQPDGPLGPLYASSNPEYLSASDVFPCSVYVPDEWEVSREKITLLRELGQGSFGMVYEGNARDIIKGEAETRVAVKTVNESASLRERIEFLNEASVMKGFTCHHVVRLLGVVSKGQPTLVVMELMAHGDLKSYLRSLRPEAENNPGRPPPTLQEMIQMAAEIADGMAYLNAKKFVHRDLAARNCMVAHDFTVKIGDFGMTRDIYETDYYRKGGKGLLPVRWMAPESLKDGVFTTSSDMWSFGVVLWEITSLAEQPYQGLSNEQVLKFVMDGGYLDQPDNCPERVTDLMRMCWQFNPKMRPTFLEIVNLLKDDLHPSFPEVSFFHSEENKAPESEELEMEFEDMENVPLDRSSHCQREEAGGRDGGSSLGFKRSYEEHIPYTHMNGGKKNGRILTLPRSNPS

COc1cc(Nc2nc(C)cc(-c3cnn4nc(OC)ccc34)n2)cc(C(F)(F)F)c1
% of control [1]: 85% | % of control [2]: 84%

Nc1cnc(N2CCc3cc(S(=O)(=O)Nc4c(F)cc(Cl)cc4F)cc(N4CCCC4=O)c32)nc1 [TP-020n]
% of inhibition [3]: -2.69% | % of inhibition [4]: 4.45%

CCC(=O)N1CCN(c2ccc(-n3c(=O)ccc4cnc5ccc(-c6cnc7ccccc7c6)cc5c43)cc2C(F)(F)F)CC1
% of control [5]: 0%

O[C@H]1CC[C@H](Nc2ncc3nc(Nc4c(F)cc(F)cc4F)n([C@H]4CCOC4)c3n2)CC1
% of control [6]: 86%

Cc1cc([C@@H](C)Nc2ccccc2C(=O)O)c2nc(N3CCOCC3)cc(=O)n2c1 [AZD-6482]
% of control [7]: 63%

CNC(=O)Nc1ccc(-c2nc(N3CC4CCC(C3)O4)c3cnn(C4CCC5(CC4)OCCO5)c3n2)cc1
% of control (Insulin receptor): 84%
